In US12643883B2, “Solid state forms of a kinase inhibitor” (Deciphera Pharmaceuticals, LLC, priority 2023, dated 2026):

Experiments:
Assay type in all cases: physicochemical
[1] = Hydration experiment, slurry of crystalline anhydrous form in deionized water; details: successive 4-hour heat-cool cycles between 40° C. and room temperature for 72 hours
Procedure: In a hydration experiment, a slurry of the crystalline anhydrous form of the compound represented by Formula (I) and deionized water was subjected to successive 4-hour heat-cool cycles between 40° C. and room temperature for 72 hours.

[2] = Static storage stability of crystalline dihydrate and anhydrous forms (XRPD, DSC, KF once weekly for four weeks)
Procedure: The stability of crystalline dihydrate and anhydrous forms of the compound represented by Formula (I) at varying relative humidity (RH) and temperature was investigated.
For example, the stability of crystalline dihydrate and anhydrous forms of the compound represented by Formula (I), as prepared according to Example 1 and Example 2, respectively, was studied under other conditions by placing aliquots of each form in static storage at conditions of 40° C./75% RH, 25° C./97% RH, 40° C./0% RH and 25° C./0% RH and analyzing the aliquots once weekly for four weeks using XRPD, DSC, and KF.

[3] = Hydration of the crystalline anhydrous form in low water activity solvents; details: water activity 0.1, Ambient, XRPD
Procedure: The hydration of the crystalline anhydrous form was studied using aqueous solvent systems with low water activity of 0.1. Slurries of the crystalline anhydrous form in the respective solvent were agitated for 6 days at room temperature. Aliquots of isolated materials were analyzed after 24, 48, and 144 hours of agitation. Table 12 summarizes the experiment conditions and isolated crystalline forms, as determined by XRPD.

[4] = static storage 25° C./0% RH, Week 1
[5] = static storage 25° C./0% RH, Week 2
[6] = static storage 25° C./0% RH, Week 3
[7] = static storage 25° C./0% RH, Week 4
[8] = static storage 25° C./97% RH, Week 1
[9] = static storage 25° C./97% RH, Week 2
[10] = static storage 25° C./97% RH, Week 3
[11] = static storage 25° C./97% RH, Week 4
[12] = static storage 40° C./0% RH, Week 1
[13] = static storage 40° C./0% RH, Week 2
[14] = static storage 40° C./0% RH, Week 3
[15] = static storage 40° C./0% RH, Week 4
[16] = static storage 40° C./75% RH, Week 1
[17] = static storage 40° C./75% RH, Week 2
[18] = static storage 40° C./75% RH, Week 3
[19] = static storage 40° C./75% RH, Week 4
[20] = static storage 25° C./0% RH, Week 4, listed as crystalline dihydrate form (having average crystal sizes of about 1 mm), dihydrate
[21] = static storage 40° C./0% RH, Week 1, dihydrate
[22] = static storage 40° C./0% RH, Week 4, listed as crystalline dihydrate form (having average crystal sizes of about 1 mm), dihydrate

Cc1nc(-c2cnc(NC(C)C)n(C)c2=O)ccc1Oc1ccnc(-c2cnn(C)c2)c1 [2-(isopropylamino)-3-methyl-5-(6-methyl-5-((2-(1-methyl-1H-pyrazol-4-yl)pyridin-4-yl)oxy)pyridin-2-yl)pyrimidin-4 (3H)-one]
isolated solid identified by XRPD [1]: crystalline dihydrate form
stability under all storage conditions ([2]; 40° C./75% RH, 25° C./97% RH, 40° C./0% RH and 25° C./0% RH, after 4 weeks): remained stable
KF (%) [2, 4]: 0.1%
XRPD [2, 4]: Anhydrous
KF (%) [2, 5]: 0.1%
XRPD [2, 5]: Anhydrous
KF (%) [2, 6]: 0.0%
XRPD [2, 6]: Anhydrous
KF (%) [2, 7]: 0.2%
XRPD [2, 7]: Anhydrous
KF (%) [2, 8]: 0.3%
XRPD [2, 8]: Anhydrous
KF (%) [2, 9]: 0.3%
XRPD [2, 9]: Anhydrous
KF (%) [2, 10]: 0.2%
XRPD [2, 10]: Anhydrous
KF (%) [2, 11]: 0.4%
XRPD [2, 11]: Anhydrous
KF (%) [2, 12]: 0.1%
XRPD [2, 12]: Anhydrous
KF (%) [2, 13]: 0.0%
XRPD [2, 13]: Anhydrous
KF (%) [2, 14]: 0.0%
XRPD [2, 14]: Anhydrous
KF (%) [2, 15]: 0.2%
XRPD [2, 15]: Anhydrous
KF (%) [2, 16]: 0.3%
XRPD [2, 16]: Anhydrous
KF (%) [2, 17]: 0.2%
XRPD [2, 17]: Anhydrous
KF (%) [2, 18]: 0.1%
XRPD [2, 18]: Anhydrous
KF (%) [2, 19]: 0.3%
XRPD [2, 19]: Anhydrous
Observed Forms 24 h ([3]; slurry in Acetone/water (99:1)): Anhydrous
Observed Forms 144 h ([3]; slurry in Acetone/water (99:1)): Anhydrous
Observed Forms 24 h ([3]; slurry in MEK/water (99:1)): Anhydrous
Observed Forms 144 h ([3]; slurry in MEK/water (99:1)): Dihydrate

Cc1nc(-c2cnc(NC(C)C)n(C)c2=O)ccc1Oc1ccnc(-c2cnn(C)c2)c1 [Dihydrate form of the compound represented by Formula (I) (h] [2-(isopropylamino)-3-methyl-5-(6-methyl-5-((2-(1-methyl-1H-pyrazol-4-yl)pyridin-4-yl)oxy)pyridin-2-yl)pyrimidin-4 (3H)-one dihydrate]
XRPD ([2]; static storage 25° C./0% RH, Week 1, dihydrate): Dihydrate
KF (%) ([2]; static storage 25° C./0% RH, Week 1, dihydrate, dihydrate crystals about 10-50 µm): 7.5%
XRPD ([2]; static storage 25° C./0% RH, Week 2, dihydrate): Dihydrate
KF (%) ([2]; static storage 25° C./0% RH, Week 2, dihydrate, dihydrate crystals about 10-50 µm): 7.7%
XRPD ([2]; static storage 25° C./0% RH, Week 3, dihydrate): Dihydrate
KF (%) ([2]; static storage 25° C./0% RH, Week 3, dihydrate, dihydrate crystals about 10-50 µm): 8.1%
XRPD ([2]; static storage 25° C./0% RH, Week 4, dihydrate): Dihydrate
KF (%) ([2]; static storage 25° C./0% RH, Week 4, dihydrate, dihydrate crystals about 10-50 µm): 7.9%
KF (%) [2, 20]: 5.8%
XRPD [2, 20]: partially converted to the crystalline anhydrous form
XRPD ([2]; static storage 25° C./97% RH, Week 1, dihydrate): Dihydrate
KF (%) ([2]; static storage 25° C./97% RH, Week 1, dihydrate, dihydrate crystals about 10-50 µm): 7.6%
XRPD ([2]; static storage 25° C./97% RH, Week 2, dihydrate): Dihydrate
KF (%) ([2]; static storage 25° C./97% RH, Week 2, dihydrate, dihydrate crystals about 10-50 µm): 7.5%
XRPD ([2]; static storage 25° C./97% RH, Week 3, dihydrate): Dihydrate
KF (%) ([2]; static storage 25° C./97% RH, Week 3, dihydrate, dihydrate crystals about 10-50 µm): 7.9%
XRPD ([2]; static storage 25° C./97% RH, Week 4, dihydrate): Dihydrate
KF (%) ([2]; static storage 25° C./97% RH, Week 4, dihydrate, dihydrate crystals about 10-50 µm): 7.9%
XRPD ([2]; static storage 25° C./97% RH, Week 4, listed as crystalline dihydrate form (having average crystal sizes of about 1 mm), dihydrate): remained stable and unchanged
XRPD [2, 21]: Pattern 4
KF (%) ([2]; static storage 40° C./0% RH, Week 1, dihydrate, dihydrate crystals about 10-50 µm): 7.5%
XRPD ([2]; static storage 40° C./0% RH, Week 1, listed as crystalline dihydrate form (having crystal sizes in the range of about 10-50 μm , dihydrate)): Pattern 4
XRPD ([2]; static storage 40° C./0% RH, Week 2, dihydrate): Pattern 4
KF (%) ([2]; static storage 40° C./0% RH, Week 2, dihydrate, dihydrate crystals about 10-50 µm): 7.4%
XRPD ([2]; static storage 40° C./0% RH, Week 2, listed as crystalline dihydrate form (having crystal sizes in the range of about 10-50 μm , dihydrate)): Pattern 4
XRPD ([2]; static storage 40° C./0% RH, Week 3, dihydrate): Anhydrous
KF (%) ([2]; static storage 40° C./0% RH, Week 3, dihydrate, dihydrate crystals about 10-50 µm): 7.0%
XRPD ([2]; static storage 40° C./0% RH, Week 3, listed as crystalline dihydrate form (having crystal sizes in the range of about 10-50 μm , dihydrate)): Pattern 4 and peaks at 9.9° and 10.6°
KF (%) ([2]; static storage 40° C./0% RH, Week 4, dihydrate, dihydrate crystals about 10-50 µm): 3.4%
KF (%) [2, 22]: 0.2%
XRPD [2, 22]: partially converted to the crystalline anhydrous form
XRPD ([2]; static storage 40° C./0% RH, Week 4, listed as crystalline dihydrate form (having crystal sizes in the range of about 10-50 μm , dihydrate)): Pattern 4 and peaks at 9.9° and 10.6°
XRPD ([2]; static storage 40° C./75% RH, Week 1, dihydrate): Dihydrate
KF (%) ([2]; static storage 40° C./75% RH, Week 1, dihydrate, dihydrate crystals about 10-50 µm): 7.5%
XRPD ([2]; static storage 40° C./75% RH, Week 2, dihydrate): Dihydrate
KF (%) ([2]; static storage 40° C./75% RH, Week 2, dihydrate, dihydrate crystals about 10-50 µm): 7.9%
XRPD ([2]; static storage 40° C./75% RH, Week 3, dihydrate): Dihydrate
KF (%) ([2]; static storage 40° C./75% RH, Week 3, dihydrate, dihydrate crystals about 10-50 µm): 8.0%
XRPD ([2]; static storage 40° C./75% RH, Week 4, dihydrate): Dihydrate
KF (%) ([2]; static storage 40° C./75% RH, Week 4, dihydrate, dihydrate crystals about 10-50 µm): 7.9%
XRPD ([2]; static storage 40° C./75% RH, Week 4, listed as crystalline dihydrate form (having average crystal sizes of about 1 mm), dihydrate): remained stable and unchanged

Cc1nc(-c2cnc(NC(C)C)n(C)c2=O)ccc1Oc1ccnc(-c2cnn(C)c2)c1 [ground crystalline dihydrate form, 2-(isopropylamino)-3-methyl-5-(6-methyl-5-((2-(1-methyl-1H-pyrazol-4-yl)pyridin-4-yl)oxy)pyridin-2-yl)pyrimidin-4 (3H)-one dihydrate]
XRPD [2, 21]: Pattern 4 and the crystalline anhydrous form
